# Data from patent US10370366B2 (Flatley Discovery Lab, LLC, priority 2013, dated 2019).
# Target: T1, human F508del CFTR (Homo sapiens, UniProt P13569, DEL508-508)
# T1 construct: expressed in transfected cells; host or cells: Fisher Rat Thyroid (FRT) cells
# Assay: CFTR-YFP High Throughput Assay
# Assay type: cell-based
# Conditions: FRT cells expressing human F508del CFTR and YFP; for Emax: EMax normalized to the positive control, read-out: % Efficacy
# Method in brief: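 Corrector mode: 24-26 h compound exposure (2 nM-40 μM, 37° C) of FRT cells carrying human F508del CFTR and YFP-H148Q/I152L, followed by washing and 60-120 min RT stimulation with 20 μM forskolin and 30 μM P3. CFTR activity is the least-squares-fitted rate of YFP quenching (Ex 500/Em 540 nm) after iodide addition.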
# T1 sequence (P13569 with tags, fused parts or gaps DEL508-508): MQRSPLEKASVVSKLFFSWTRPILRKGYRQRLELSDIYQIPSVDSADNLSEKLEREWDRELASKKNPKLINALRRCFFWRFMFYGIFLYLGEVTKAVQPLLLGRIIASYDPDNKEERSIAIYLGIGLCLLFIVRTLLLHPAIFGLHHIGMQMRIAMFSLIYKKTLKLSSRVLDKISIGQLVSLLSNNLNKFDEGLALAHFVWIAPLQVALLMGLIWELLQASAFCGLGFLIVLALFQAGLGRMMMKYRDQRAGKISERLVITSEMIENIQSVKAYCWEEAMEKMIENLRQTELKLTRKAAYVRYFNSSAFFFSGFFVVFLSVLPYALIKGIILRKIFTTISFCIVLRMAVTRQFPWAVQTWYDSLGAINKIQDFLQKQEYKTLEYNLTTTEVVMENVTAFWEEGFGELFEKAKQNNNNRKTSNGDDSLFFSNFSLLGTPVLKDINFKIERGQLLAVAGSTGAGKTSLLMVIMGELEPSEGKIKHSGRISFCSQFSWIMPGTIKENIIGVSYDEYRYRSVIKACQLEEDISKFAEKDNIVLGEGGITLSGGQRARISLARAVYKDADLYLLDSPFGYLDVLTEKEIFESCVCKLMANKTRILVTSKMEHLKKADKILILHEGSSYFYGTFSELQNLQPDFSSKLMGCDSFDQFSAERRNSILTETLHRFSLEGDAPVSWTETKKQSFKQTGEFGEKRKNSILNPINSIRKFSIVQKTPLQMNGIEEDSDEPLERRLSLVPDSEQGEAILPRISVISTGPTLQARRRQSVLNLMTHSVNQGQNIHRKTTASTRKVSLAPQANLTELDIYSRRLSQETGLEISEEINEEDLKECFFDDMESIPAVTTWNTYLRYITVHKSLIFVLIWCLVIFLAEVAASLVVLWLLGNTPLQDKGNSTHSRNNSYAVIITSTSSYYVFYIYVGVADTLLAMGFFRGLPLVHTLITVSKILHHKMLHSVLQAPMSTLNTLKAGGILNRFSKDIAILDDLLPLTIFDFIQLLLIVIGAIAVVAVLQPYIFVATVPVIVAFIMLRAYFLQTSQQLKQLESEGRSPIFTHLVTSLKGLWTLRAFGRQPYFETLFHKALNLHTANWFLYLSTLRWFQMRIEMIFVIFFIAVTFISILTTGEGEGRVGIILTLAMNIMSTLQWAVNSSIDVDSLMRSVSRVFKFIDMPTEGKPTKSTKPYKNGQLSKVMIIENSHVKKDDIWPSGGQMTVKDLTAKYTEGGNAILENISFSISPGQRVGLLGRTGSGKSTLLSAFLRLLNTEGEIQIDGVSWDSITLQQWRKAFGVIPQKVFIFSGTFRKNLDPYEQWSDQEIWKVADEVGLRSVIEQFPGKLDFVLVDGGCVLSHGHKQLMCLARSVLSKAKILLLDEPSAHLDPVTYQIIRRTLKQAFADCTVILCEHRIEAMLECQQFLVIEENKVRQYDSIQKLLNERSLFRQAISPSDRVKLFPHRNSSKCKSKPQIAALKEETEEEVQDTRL
SMILES,Emax,EC50
"CCN(C(=O)c1nn(-c2ccc(C(F)(F)F)cn2)c(=O)c2c1c1ccccc1n2C)c1ccccc1 [Example 193, N-ethyl-5-methyl-4-oxo-N-phenyl-3-(5-(trifluoromethyl)pyridin-2-yl)-4,5-dihydro-3H-pyridazino[4,5-b]indole-1-carboxamide]",30 to 80%,< 10 µM
"CCN(C(=O)c1nn(-c2ccc(C(F)(F)F)cc2)c(=O)c2c1c1ccccc1n2C)c1ccccc1 [Example 194, N-ethyl-5-methyl-4-oxo-N-phenyl-3-(4-(trifluoromethyl)phenyl)-4,5-dihydro-3H-pyridazino[4,5-b]indole-1-carboxamide]",30 to 80%,> 20 µM
"CCN(C(=O)c1nn(-c2ccc(C)cc2)c(=O)c2c1c1c(OC)cccc1n2C)c1ccccc1 [Example 195, N-ethyl-9-methoxy-5-methyl-4-oxo-N-phenyl-3-(p-tolyl)-4,5-dihydro-3H-pyridazino[4,5-b]indole-1-carboxamide]",30 to 80%,< 10 µM
"CCN(C(=O)c1nn(-c2ccc(C)cc2)c(=O)c2c1c1c(C)cccc1n2C)c1ccccc1 [Example 196, N-ethyl-5,9-dimethyl-4-oxo-N-phenyl-3-(p-tolyl)-4,5-dihydro-3H-pyridazino[4,5-b]indole-1-carboxamide]",> 80%,> 20 µM
"CCN(C(=O)c1nn(Cc2ccccc2)c(=O)c2c1c1ccccc1n2C)c1ccccc1 [Example 197, 3-benzyl-N-ethyl-5-methyl-4-oxo-N-phenyl-4,5-dihydro-3H-pyridazino[4,5-b]indole-1-carboxamide]",30 to 80%,–
"CCN(C(=O)c1nn(C2CCN(Cc3ccccc3)CC2)c(=O)c2c1c1ccccc1n2C)c1ccccc1 [Example 198, 3-(1-benzylpiperidin-4-yl)-N-ethyl-5-methyl-4-oxo-N-phenyl-4,5-dihydro-3H-pyridazino[4,5-b]indole-1-carboxamide]",30 to 80%,–
"CCN(C(=O)c1nn(C2CCN(C)CC2)c(=O)c2c1c1ccccc1n2C)c1ccccc1 [Example 199, N-ethyl-5-methyl-3-(1-methylpiperidin-4-yl)-4-oxo-N-phenyl-4,5-dihydro-3H-pyridazino[4,5-b]indole-1-carboxamide]",10 to 30%,> 20 µM
"CCN(C(=O)c1nn(C2CCN(S(=O)(=O)c3ccc4c(c3)OC(F)(F)O4)CC2)c(=O)c2c1c1ccccc1n2C)c1ccccc1 [Example 200, 3-(1-((2,2-difluorobenzo[d][1, 3]dioxol-5-yl)sulfonyl)piperidin-4-yl)-N-ethyl-5-methyl-4-oxo-N-phenyl-4,5-dihydro-3H-pyridazino[4,5-b]indole-1-carboxamide]",30 to 80%,< 10 µM
"CCN(C(=O)c1nn(C(C)C)c(=O)c2c1c1ccccc1n2C)c1cccc(Cl)c1 [Example 201, N-(3-chlorophenyl)-N-ethyl-3-isopropyl-5-methyl-4-oxo-4,5-dihydro-3H-pyridazino[4,5-b]indole-1-carboxamide]",30 to 80%,–
"CCN(C(=O)Cn1nc(C(=O)N(CC)c2cccc(Cl)c2)c2c3ccccc3n(C)c2c1=O)c1ccc2c(c1)OC(F)(F)O2 [Example 202, N-(3-chlorophenyl)-3-(2-((2,2-difluorobenzo[d][1,3]dioxol-5-yl)(ethyl)amino)-2-oxoethyl)-N-ethyl-5-methyl-4-oxo-4,5-dihydro-3H-pyridazino[4,5-b]indole-1-carboxamide]",30 to 80%,–
"CCc1ccc(N(CC)C(=O)Cn2nc(C(=O)N(CC)c3cccc(Cl)c3)c3c4ccccc4n(C)c3c2=O)cc1 [Example 203, N-(3-chlorophenyl)-N-ethyl-3-(2-(ethyl(4-ethylphenyl)amino)-2-oxoethyl)-5-methyl-4-oxo-4,5-dihydro-3H-pyridazino[4,5-b]indole-1-carboxamide]",30 to 80%,–
"CCN(C(=O)c1nn(C2CCCCC2)c(=O)c2c1c1ccccc1n2C)c1cccc(Cl)c1 [Example 204, N-(3-chlorophenyl)-3-cyclohexyl-N-ethyl-5-methyl-4-oxo-4,5-dihydro-3H-pyridazino[4,5-b]indole-1-carboxamide]",30 to 80%,–
"CCN(C(=O)c1nn(C(C)C)c(=O)c2c1c1ccccc1n2C)c1cc(Cl)ccc1C#N [Example 205, N-(5-chloro-2-cyanophenyl)-N-ethyl-3-isopropyl-5-methyl-4-oxo-4,5-dihydro-3H-pyridazino[4,5-b]indole-1-carboxamide]",30 to 80%,–
"CCN(CC)C(=O)c1nn(CC(=O)N(CC)c2ccc3c(c2)OC(F)(F)O3)c(=O)c2c1c1ccccc1n2C [Example 206, 3-(2-((2,2-difluorobenzo[d][1, 3]dioxol-5-yl)(ethyl)amino)-2-oxoethyl)-N,N-diethyl-5-methyl-4-oxo-4,5-dihydro-3H-pyridazino[4,5-b]indole-1-carboxamide]",30 to 80%,–
"CCN(C(=O)c1nn(C)c(=O)c2c1c1ccccc1n2C)c1ccccc1 [Example 207, N-ethyl-3,5-dimethyl-4-oxo-N-phenyl-4,5-dihydro-3H-pyridazino[4,5-b]indole-1-carboxamide]",30 to 80%,< 10 µM
"CC(C)n1nc(C(=O)N2CCCCC2)c2c3ccccc3n(C)c2c1=O [Example 208, 3-isopropyl-5-methyl-1-(piperidine-1-carbonyl)-3,5-dihydro-4H-pyridazino[4,5-b]indol-4-one]",10 to 30%,< 10 µM
"CCN(C(=O)c1nn(C)c(=O)c2c1c1ccccc1n2C)c1cccc(Cl)c1 [Example 209, N-(3-chlorophenyl)-N-ethyl-3,5-dimethyl-4-oxo-4,5-dihydro-3H-pyridazino[4,5-b]indole-1-carboxamide]",30 to 80%,< 10 µM

# Other lines, results leading:
Emax,EC50,SMILES
30 to 80%,< 10 µM,"CCOc1ccc(N(CC)C(=O)c2nn(C(C)C)c(=O)c3c2c2ccccc2n3C)cc1 [Example 210, N-(4-ethoxyphenyl)-N-ethyl-3-isopropyl-5-methyl-4-oxo-4,5-dihydro-3H-pyridazino[4,5-b]indole-1-carboxamide]"
30 to 80%,< 10 µM,"CCN(C(=O)c1nn(C)c(=O)c2c1c1ccccc1n2C)c1ccc2c(c1)OC(F)(F)O2 [Example 211, N-(2,2-difluorobenzo[d][1,3]dioxol-5-yl)-N-ethyl-3,5-dimethyl-4-oxo-4,5-dihydro-3H-pyridazino[4,5-b]indole-1-carboxamide]"
30 to 80%,< 10 µM,"CC(C)N(C(=O)c1nn(Cc2ccccc2)c(=O)c2c1c1ccccc1n2C)c1ccccc1 [Example 212, 3-benzyl-N-isopropyl-5-methyl-4-oxo-N-phenyl-4,5-dihydro-3H-pyridazino[4,5-b]indole-1-carboxamide]"
30 to 80%,< 10 µM,"CCN(CC)C(=O)c1nn(CC(=O)N(CC)c2cccc(Cl)c2)c(=O)c2c1c1ccccc1n2C [Example 213, 3-(2-((3-chlorophenyl)(ethyl)amino)-2-oxoethyl)-N,N-diethyl-5-methyl-4-oxo-4,5-dihydro-3H-pyridazino[4,5-b]indole-1-carboxamide]"
30 to 80%,< 10 µM,"CCN(C(=O)c1nn(CC(=O)N2CCCCC2)c(=O)c2c1c1ccccc1n2C)c1ccccc1 [Example 214, N-ethyl-5-methyl-4-oxo-3-(2-oxo-2-(piperidin-1-yl)ethyl)-N-phenyl-4,5-dihydro-3H-pyridazino[4,5-b]indole-1-carboxamide]"
30 to 80%,< 10 µM,"CCN(C(=O)c1nn(CC(=O)N2CCOCC2)c(=O)c2c1c1ccccc1n2C)c1ccccc1 [Example 215, N-ethyl-5-methyl-3-(2-morpholino-2-oxoethyl)-4-oxo-N-phenyl-4,5-dihydro-3H-pyridazino[4,5-b]indole-1-carboxamide]"
30 to 80%,< 10 µM,"CCN(C(=O)c1nn(CC2CCCO2)c(=O)c2c1c1ccccc1n2C)c1ccccc1 (stereo not shown) [Example 216, N-ethyl-5-methyl-4-oxo-N-phenyl-3-((THF-2-yl)methyl)-4,5-dihydro-3H-pyridazino[4,5-b]indole-1-carboxamide]"
10 to 30%,> 20 µM,"CCN(C(=O)c1nn(CC(C)(C)C)c(=O)c2c1c1ccccc1n2C)c1ccccc1 [Example 217, N-ethyl-5-methyl-3-neopentyl-4-oxo-N-phenyl-4,5-dihydro-3H-pyridazino[4,5-b]indole-1-carboxamide]"
> 80%,< 10 µM,"CCN(C(=O)c1nn(C(C)c2ccccc2)c(=O)c2c1c1c(C)cccc1n2C)c1ccccc1 (stereo not shown) [Example 218, N-ethyl-5,9-dimethyl-4-oxo-N-phenyl-3-(1-phenylethyl)-4,5-dihydro-3H-pyridazino[4,5-b]indole-1-carboxamide]"
10 to 30%,–,"CCN(C(=O)c1nn(-c2ccc(C)cc2)c(=O)c2c1c1ccccc1n2C1CCC1)c1ccccc1 [Example 219, 5-cyclobutyl-N-ethyl-4-oxo-N-phenyl-3-p-tolyl-4,5-dihydro-3H-pyridazino[4,5-b]indole-1-carboxamide]"
30 to 80%,–,"CCN(C(=O)c1nn(-c2ccc(C)cc2)c(=O)c2[nH]c3ccccc3c12)c1ccccc1 [Example 220, N-Ethyl-4-oxo-N-phenyl-3-p-tolyl-4,5-dihydro-3H-pyridazino[4,5-b]indole-1-carboxamide]"
30 to 80%,–,"CCN(C(=O)c1nn(-c2ccc(C)cc2)c(=O)c2[nH]c3ccccc3c12)c1cccc(Cl)c1 [Example 221, N-(3-chlorophenyl)-N-ethyl-4-oxo-3-(p-tolyl)-4,5-dihydro-3H-pyridazino[4,5-b]indole-1-carboxamide]"
30 to 80%,> 20 µM,"CCN(C(=O)Cn1ncc2c([nH]c3ccccc32)c1=O)c1ccc2c(c1)OC(F)(F)O2 [Example 222, N-(2,2-difluorobenzo[d][1, 3]dioxol-5-yl)-N-ethyl-2-(4-oxo-4,5-dihydro-3H-pyridazino[4,5-b]indol-3-yl)acetamide]"
